In brackets after ≈: the same amount, converted by molar mass. Several values for one entry are separate records, joined by “and”; a condition that tells them apart may be missing. Equal values may be shown once.
Key:
[1] = target: SARS-CoV-2 spike RBD to human ACE2 (Severe acute respiratory syndrome coronavirus 2, UniProt P0DTC2); experiment: biochemical; type: binding, SARS-CoV-2 / human; details: for IC50: IC50 (µM)
[2] = tested on: mouse macrophage cell line J774.2; experiment: In vitro cytotoxicity, MTT method; details: for SI: selectivity index CC50/IC50
Procedure: (§1) The mouse macrophage cell line J774.2 (ATCC® TIB-67) was used for the evaluation of the in vitro cytotoxicity. Cells were cultured in RPMI medium supplemented with 10% SFB, […], and glutamine (2 mM) at 37 °C and in an atmosphere of 5% CO2. The medium was changed at intervals of every 2 to 3 days. For the cytotoxicity assays, 1 × 10^6 cells were incubated with different concentrations of the compounds (0.78 to 200 µM) at 37 °C for 48 h in an atmosphere of 5% CO2. Cells in the presence of the maximum concentration of DMSO (0.2%) were included as a negative control. The metabolic activity of the cells was determined using the MTT method. The percentage of cell viability was calculated, and the mean cytotoxic concentration (CC50) was determined via a Probit analysis. Three independent assays were performed in triplicate each. Finally, the selectivity index (SI) was calculated using the following formula CC50/IC50.

[3] = In vitro cytotoxicity, MTT method; details: mouse, J774.2 macrophage cells, CC50 (µM), macrophage cell line J774.2, 48 h, MTT; means of three experiments
Procedure: as §1

[4] = tested on: S protein and its host cell receptor ACE2; details: cited from earlier work
S protein = details: block the S protein and inhibit protein-mediated intercellular fusion; cited from earlier work
meiobenthic nematodes = details: cited from earlier work
[5] = target: S protein with the ACE2 host receptor; details: cell-free ELISA-type assay; cited from earlier work
[6] = tested on: S protein and its host cell receptor ACE2; details: cited from earlier work; remark: listed apart in the source
rats = details: concentrations of 0.03, 0.3, and 3%; cited from earlier work

| Structure (SMILES) | inhibition at 50 µM [1] [%] | IC50 [1] [µM] | SI [2] | also measured |
| --- | --- | --- | --- | --- |
| O=C(Nc1ccc2c(O)cc(S(=O)(=O)O)cc2c1)Nc1ccc2c(O)cc(S(=O)(=O)O)cc2c1 [DRI-2, c12c(ccc(c1)NC(=O)Nc1cc3c(cc1)c(cc(c3)S(=O)(=O)O)O)c(cc(c2)S(=O)(=O)O)O] | 90.8 ± 1.7 | 8.84 ± 4.3 | 22.6 and 22.62 |  |
| CC(=O)Nc1ccc(OS(=O)(=O)c2ccc3c4c(cccc24)C(=O)N3)c2ccccc12 [DRI-5, CC(=O)Nc1ccc(OS(=O)(=O)c2ccc3NC(=O)c4cccc2c34)c2ccccc12] | 69.9 ± 1.2 | 13.7 ± 0.12 | 9.21 | CC50 at 48 h [3]: 126 ± 2.3 µM |
| CS(=O)(=O)c1cccc(C[C@H](NC(=O)c2c(Cl)cc3c(c2Cl)CCN(C(=O)c2ccc4ccoc4c2)C3)C(=O)O)c1 [sodium lifitegrast] |  |  |  | Kd [4]: 0.00192 µM |
| C[C@]12CC[C@@H]3c4ccc(OC(=O)c5ccccc5)cc4CC[C@H]3[C@@H]1CC[C@@H]2O [estradiol benzoate] |  |  |  | IC50 (S protein): 1.02 µM; concentration from which significant toxicity starts (meiobenthic nematodes): ≥ 4.3 pg/mL |
| CCOc1ccc(NS(=O)(=O)c2ccc(NC(=O)c3ccc(-c4ccccc4)cc3)cc2)cc1 [DRI-4, S(=O)(=O)(Nc1ccc(cc1)OCC)c1ccc(NC(=O)c2ccc(cc2)c2ccccc2)cc1] | 76.4 ± 1 | 24.6 ± 2.5 | 8.14 | CC50 at 48 h [3]: > 200 µM |
| O=C(Nc1ccc2cc(S(=O)(=O)O)cc(O)c2c1)c1ccc(-c2ccc(C(=O)Nc3ccc4cc(S(=O)(=O)O)cc(O)c4c3)cc2)cc1 [DRI-C91005] |  |  |  | IC50 [5]: 0.16 µM |
| O=C(Nc1ccc2c(O)c(/N=N/c3ccc(/N=N/c4ccc(S(=O)(=O)[O-])cc4)cc3)c(S(=O)(=O)[O-])cc2c1)c1ccccc1.[Na+].[Na+] [DRI-1, [Na+].[Na+].c1(/N=N/c2ccc(cc2)/N=N/c2c(cc3c(c2O)ccc(c3)NC(=O)c2ccccc2)S(=O)(=O)[O-])ccc(cc1)S(=O)(=O)[O-]] | 90.59 ± 0.54 | 13 ± 0.71 | 7.25 | CC50 at 48 h [3]: 94.5 µM; CC50 ([2]; macrophage cell line J774.2, 48 h, MTT, means of three experiments): 94.5 ± 0.96 µM |
| CC1=C(C)C(=O)O[C@@H]([C@@H](C)[C@@]2(O)CC[C@H]3[C@@H]4[C@@H]5O[C@@H]5[C@@]5(O)CC=CC(=O)[C@]5(C)[C@H]4CC[C@@]32C)C1 [withanone] |  |  |  | IC50 [6]: 0.33 ng/mL (≈ 0.701 nM) |
| CCC(C)n1ncn(-c2ccc(N3CCN(c4ccc(OCC5COC(Cn6cncn6)(c6ccc(Cl)cc6Cl)O5)cc4)CC3)cc2)c1=O (stereo not drawn) [itraconazole] |  |  |  | IC50 (S protein): 0.45 µM |
| CCN(Cc1cccc(S(=O)(=O)O)c1)c1ccc(C(=C2C=CC(=[N+](CC)Cc3cccc(S(=O)(=O)O)c3)C=C2)c2ccccc2)cc1 [DRI-3, guinea green B] | 99.65 ± 0.25 | 2.14 ± 0.97 | 93.4 and 93.45 | toxicity in rats (rats): initial growth depression in rats, as well as the appearance of malignant tumors |
| COc1ccc2c(O[C@@H]3C[C@H]4C(=O)N[C@]5(C(=O)NS(=O)(=O)C6CC6)C[C@H]5/C=C\CCCCN(C)C(=O)[C@@H]4C3)cc(-c3nc(C(C)C)cs3)nc2c1C [simeprevir] |  |  |  | Kd [4]: 0.812 µM |
